One data set deals with T1, full length HuR (Homo sapiens, UniProt Q15717).
T1 construct: made in house; host or cells: E. coli ER2566
The data set is described as follows: Deduction of the HuR binding site: affinities of RNA fragments to full length HuR. The method, then: Individual RNA fragments are synthesized and the affinities (given as Kd values) to full length HuR are determined (see TABLE 2). […] An influence of the fluorescent dye is excluded by competition experiments with unlabeled RNA fragments. […] Fragments 5, 6, 7a-7d and 8a-8c serve to tests tolerance for non-Uracil (exemplified by A=adenine) and C, respectively, at the depicted (bold and underlined) positions. […] This interaction appears to follow an all-or-nothing mechanism: While sequences with single mismatches are not recognized, sequences fulfilling this motif are bound with high affinity and an invariable Kd, Kdfund, of 0.99 nM.

Data set [1] has as its target T2, sfl-HuR (soluble form of full length HuR) (Homo sapiens, UniProt Q15717).
T2 construct: made in house; host or cells: E. coli ER2566
The experiment in a line: 2D-FIDA-r anisotropy assay: titration of fluorescently labeled ARE RNA fragments against sfl-HuR. The data set is classed as binding. Conditions: 2D-FIDA-r assay, RNA fragment 5'-terminally labeled with 5'-carboxy-TMR; for Kd: read-out: Kd sfl-HuR in nM +/- St. dev. The method, then:
(§1) In a preferred embodiment an assay of the present invention is performed by use of 2 dimensional-FIDA anisotropy analysis, wherein the fluorescence anisotropy of the complex between mRNA and HuR is determined at single molecule sensitivity by extension of the microscopic confocal detection setup to two polarisation channels.
(§2) Titration of fluorescently labeled RNA fragments corresponding to the AREs of, for example, IL-2, IL-4, IL-8, Cox-2, IL-1β or TNF-α (5′-terminally labeled with 5′-carboxy-TMR and 33, 58, 26, 35, 33 and 34 nts in length, respectively), against increasing concentrations of a soluble form of recombinant full-length HuR or HuR12 is performed.
(§3) In vitro, individual AU rich elements are bound to HuR with different affinity, although they are derived from mRNA targets which are known to be associated with HuR-mediated regulation. This fragment selectivity is retained when the third RRM as well as the hinge region are missing as is the case for HuR12. […] However, the full length protein binds to all fragments with a higher affinity. The Kd is lower by an almost constant factor of 50. In contrast, the low affinity fragments (Kd for HuR12>1 μM) are no longer recognized by the full length protein at all (see TABLE 1).

A further data set addresses T3, HuR12 (Homo sapiens, UniProt Q15717).
T3 construct: Mxe-intein-CBD tag (IMPACT-TWIN, pTWIN1) (C, cleaved yes); 2-MESNA thioester on the C-terminal carboxyl group (>95% of the material); made in house; host or cells: E. coli ER2566 (pTWIN1/HuR12)
The data set is described as follows: 2D-FIDA-r anisotropy assay: titration of fluorescently labeled ARE RNA fragments against HuR12. As to conditions: 2D-FIDA-r assay, RNA fragment 5'-terminally labeled with 5'-carboxy-TMR; for Kd: read-out: Kd HuR12 in nM +/- St. dev. The data set is classed as binding. The method, then: as §1, §2, §3

A short description of data set [2]: Solubility: no aggregation and precipitation in aqueous buffer (size exclusion chromatography and/or UV-spectroscopy). The data set is classed as physicochemical. As to conditions: aqueous buffer of physiological pH; for concentration at which no aggregation and precipitation is seen: spectroscopy-compatible conditions. As for the experimental part: The concentration of protein used in an assay of the present invention depends on the binding affinity between a specific mRNA (fragment) and HuR, e.g. the protein concentration used in an assay of the present invention may be lower in case there is a high binding affinity between the two species or vice versa. Solvent include aqueous solvent, e.g. buffer solution, e.g. aqueous physiological buffer solution.
Expression of the cloned HuR-Intein-CBD fusion protein is induced by addition of 1 mM IPTG to a bacterial culture grown to late-logarithmic phase in LB broth medium and allowed to proceed for 6 hours at 28°. The bacterial cells are lysed by successive freezing/thawing cycles in a buffer of 20 mM Tris/Cl pH 8.0, 800 mM NaCl, 1 mM EDTA and 0.2% Pluronic F-127 (Molecular Probes). After DNA digestion, the bacterial lysates are cleared by ultracentrifugation and the fusion protein is captured onto chitin agarose beads (New England Biolabs) via the CBD. After extensive washing of the beads with lysis buffer, the recombinant protein is recovered by thiol-induced on-column self-splicing of the intein tag by addition of Na-2-MESNA to a final concentration of 50 mM and incubation for 12 hours at 4°. Any co-eluted intein tag and un-cleaved fusion protein are removed from the eluate in a second, subtractive affinity step. […]
The quality of the purified protein is controlled by denaturing SDS-PAGE, UV-spectroscopy, analytical Size Exclusion Chromatography, RP-HPLC analysis, LC/ESI-MS analysis and CD-spectroscopy, following standard protocols as described in example 2. […] Results from UV-spectroscopy, showing no absorbance at >330 nm, and analytical size exclusion chromatography, where HuR elutes as a single peak with a maximum at 24.2 kD, provide evidence that no higher aggregation states of the protein are present at the given buffer concentrations.
The folding of the protein after the purification procedure as well as following fluorescent labeling is monitored by CD-Spectroscopy.

pKd: −log10 of the molar value.

By pKd is commonly meant the Kd on a negative log10 scale, so that one unit is a factor of ten. A high value points to a low Kd.

T2 sequence (Q15717 whole entry): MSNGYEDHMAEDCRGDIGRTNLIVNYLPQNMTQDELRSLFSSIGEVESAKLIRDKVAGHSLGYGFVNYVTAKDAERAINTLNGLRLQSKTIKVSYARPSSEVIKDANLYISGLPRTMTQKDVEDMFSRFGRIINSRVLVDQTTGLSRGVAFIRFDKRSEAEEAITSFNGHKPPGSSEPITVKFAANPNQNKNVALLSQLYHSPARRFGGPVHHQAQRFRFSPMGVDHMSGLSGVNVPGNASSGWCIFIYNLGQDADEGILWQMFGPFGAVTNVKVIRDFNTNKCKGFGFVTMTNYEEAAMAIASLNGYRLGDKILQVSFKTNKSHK
T1 sequence (Q15717 whole entry): as above
T3 sequence (Q15717 2-189): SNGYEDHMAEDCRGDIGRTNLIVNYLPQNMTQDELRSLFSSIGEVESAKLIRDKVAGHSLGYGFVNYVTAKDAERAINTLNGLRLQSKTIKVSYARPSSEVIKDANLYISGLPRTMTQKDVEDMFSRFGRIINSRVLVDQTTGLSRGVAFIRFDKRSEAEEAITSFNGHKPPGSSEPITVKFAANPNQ

With polyU [reference compound], at full length HuR (full length HuR), the “binding / recognition by HuR (in words)” value is recorded as “bound by HuR with high affinity”.
Consider “UAUUUAUUAUUUAUGUAUUUAUUUAA (chemistry not given here) [IL-8, synthetic RNA fragment of the IL-8 ARE, 5'-TMR labeled]”, for which the Kd in data set [1] worked out at 1.09 nM; with HuR12 it was 42.9 nM.
Take “AUUUAUUUAUUUAUUUAUUUA (chemistry not given here) [(AUUU)5A]”: the Kd in data set [1] came to 0.4 nM; with HuR12 it was 23.5 nM.
For “4d (AUUUAUUUAUUUA; chemistry not given here)”, in the data set with full length HuR (binding to full length HuR), the “Kd (in nM)” value is recorded as “not bound”.
With “UAUUAAUUUAAUUAUUUAAUAAUAUUUAUAUUAAA (chemistry not given here) [Cox-2 (2), synthetic RNA fragment of the Cox-2 ARE, 5'-TMR labeled]”, the Kd came to 13.6 nM in data set [1] and 229 nM with HuR12.
Consider “HuR12: HuR variant encompassing the first two RRMs, aa1-189 or aa2-189 of SEQ ID NO:1”, for which the “concentration at which no aggregation and precipitation is seen” value in data set [2] was > 100 µM.
For the substance “AUUAUUUAUUAUUUAUUUAUUAUUUAUUUAUUUA (chemistry not given here) [TNF-α, synthetic RNA fragment of the TNF-α ARE, 5'-terminally labeled with 5'-carboxy-TMR]”, the Kd was determined as 0.35 nM in data set [1] and 21.4 nM in the data set with HuR12.
For “4a (AUUUAUUUAUUUA; chemistry not given here)”, in the data set with full length HuR (binding to full length HuR), the pKd is 8.85 and the “Kd (in nM)” value is listed as “not bound”.
In the case of “UAUUUAUUUAUUUAUUUGUUUGUUUGUUUUAUU (chemistry not given here) [IL-1β, synthetic RNA fragment of the IL-1β ARE, 5'-TMR labeled]”, the Kd in data set [1] is 0.12 nM; with HuR12 it was 18.4 nM.
Taken in the same sequence, the figures for “AUUUAUUUAUUUAUUUA (chemistry not given here) [(AUUU)4A]” were 2.09 nM and 126 nM.
Take “UAGAGUUCAUCGCAAUUGCAC (chemistry not given here) [irrelevant seq., reference compound]”: the “Kd sfl-HuR in nM +/- St. dev.” value in data set [1] was “n.b”. Besides, the “Kd HuR12 in nM +/- St. dev.” value with HuR12 is listed as “n.b”.
For the substance “AUUAUUAUUAUUAUUA (chemistry not given here) [(AUU)5A]”, in data set [1], the “Kd sfl-HuR in nM +/- St. dev.” value is “n.b”. Also, the Kd with HuR12 was 1590 nM.
For the substance “4c (AUUUAUUUAUUUA; chemistry not given here)”, in the data set with full length HuR (binding to full length HuR), the “Kd (in nM)” value was “not bound”.
Take “AUUUUAAUUUAUGAGUUUUUGAUAGCUUUAUUUUUUAAGUAUUUAUAUAUUUAUAA (chemistry not given here) [IL-4, synthetic RNA fragment of the IL-4 ARE, 5'-TMR labeled]”: the Kd is 3.21 nM in data set [1] and 154 nM in the data set with HuR12.
On to “sfl-HuR: full-length human HuR (SEQ ID NO:1 or 2) whose C-terminal amino acid is esterified by Na-2-MESNA as a thioester”, for which the “concentration at which no aggregation and precipitation is seen” value in data set [2] was > 0.5 µM.
In the case of “UAUUUAUUUAAAUAUUUAAAUUUUAUAUUUAUU (chemistry not given here) [IL-2, synthetic RNA fragment of the IL-2 ARE, 5'-TMR labeled]”, the Kd in data set [1] turned out to be 9.5 nM; in the data set with HuR12, 498 nM.
In the case of “wild-type full length HuR: unmodified wild-type full length HuR protein”, in data set [2] (without micelle-forming detergents or glycerol, protein >0.5 μM), the “solubility in aqueous solvent (in words)” value was “practically insoluble”.

For the origin of these results see patent US7399583B2, “Method for the identification of inhibitors of the binding of ARE-containing mRNA and a HuR protein” (Novartis AG, priority 2002, dated 2008).
